Results reported in publication PMC2943488 (Molecular bioSystems, 2010).
One block for each compound: values may come before it.

Assays:
[1] = tested on: primary human hepatocytes; assay: Lactate dehydrogenase; type: cell-based
[2] = tested on: MEK–ERK signaling (p-MEK1, p-ERK1/2); assay: Bio-Plex bead-based phosphoprotein assay, MEK–ERK pathway; type: cell-based, human
[3] = tested on: Akt, p70 S6K, MEK–ERK, and p38–HSP27 signaling pathways; settings: donor #2; 100*Cmax

- inhibition of MEK signaling in human hepatocytes ([2]; donor #3, selection from panel of candidate inhibitors): potently inhibit signaling
SMILES: N#CC(=C(/N)Sc1ccccc1N)/C(C#N)=C(/N)Sc1ccccc1N [U0126]
- toxicity induced by inhibitor itself in human hepatocytes ([1]; donor #3): minimal toxicity

SMILES: CC[C@H]1OC(=O)[C@H](C)[C@@H](O[C@H]2C[C@@](C)(OC)[C@@H](O)[C@H](C)O2)[C@H](C)[C@@H](O[C@@H]2O[C@H](C)C[C@H](N(C)C)[C@H]2O)[C@](C)(OC)C[C@@H](C)C(=O)[C@H](C)[C@@H](O)[C@]1(C)O [clarithromycin]
- MEK–ERK signaling under drug treatment ([2]; donor #1 and donor #2, 100*Cmax): sustained activation of MEK–ERK signaling

SMILES: CN(C)CCCN1c2ccccc2CCc2ccc(Cl)cc21 [clomipramine]
- activation of the four 'network gauge' signaling pathways compared to control treatments [3]: without significant activation

SMILES: N[C@@H]1[C@H]2CN(c3nc4c(cc3F)c(=O)c(C(=O)O)cn4-c3ccc(F)cc3F)C[C@@H]12 [trovafloxacin]
- synergistic induction of cell death by drug/cytokine co-treatment ([1]; drug ± three-cytokine/LPS mix, donors #1 and #2): synergistically induced
